“And” between values parts separate entries of the source, which are not always exact repeats. Equal entries are not always repeated. Residues, ends and D or L forms follow the SMILES beside them.
Legend:
[1] = cited from earlier work; for Effective pH Range: buffer without pK index; for pKa values for the single buffers, second value: Table 5, in parentheses; for Effective pH Range (pK1): line labelled pK1; for Effective pH Range (pK2): line labelled pK2; for Effective pH Range (pK3): line labelled pK3
[2] = Temperature dependence of pH of buffer solutions, ratiometric UV-vis (A418/A623) with indicator 1; type: physicochemical; details: for pH at plateau: plateau 150 K to 90 K; for pH at 298 K: single buffers; for direction of pH change as the solution is equilibrated at lower temperatures: FIG. 4, 50 mM buffer solutions containing 75% glycerol
[3] = pH-sensitive dye; cited from earlier work
[4] = cited from earlier work
[5] = Freeze-thaw storage stability of oxacillin solutions in various buffers, HPLC; type: physicochemical
[6] = cited from earlier work; remark: listed apart in the source
[7] = Table 3, change in pH with decreasing temperature, pH 6.1 at 298 K

## NC(=O)CNCCS(=O)(=O)O [ACES]
[1]; Table 2
  Effective pH Range: 6.1–7.5

## CC(C)(N)CO [AMP, 2-amino-2-methyl-1-propanol]
[1]; Table 2
  Effective pH Range: 8.7–10.4

## CC(N)(CO)CO [AMPD, 2-amino-2-methyl-1,3-propanediol]
[1]; Table 2
  Effective pH Range: 7.8–9.7

## CC(C)(CO)NCC(O)CS(=O)(=O)O (centres unmarked) [AMPSO]
[1]; Table 2
  Effective pH Range: 8.3–9.7

## OCC(CO)(CO)NCCCNC(CO)(CO)CO [BIS-TRIS propane, 1,3-bis[tris(hydroxymethyl)methylamino]propane]
[2]; [7]
  ΔpH: +2.1
[2]; Table 3, pH 6.1 at 298 K
  pH at plateau: 8.2
[2]; Table 3
  pH at 298 K: 6.1
[1]; Table 2
  Effective pH Range: 6.3–9.5
[1]; Table 2, pK2 or second value printed in the cell
  pKa at 25° C., pK2: 9.00
[1]
  pKa values for the single buffers, second value: 9.0

## Cc1c(C2(c3cc(Br)c(O)c(Br)c3C)OS(=O)(=O)c3ccccc32)cc(Br)c(O)c1Br [Bromocresol green]
[3]
  pKa: 4.6

## O=S(=O)(O)CCCCNC1CCCCC1 [CABS]
[1]; Table 2
  Effective pH Range: 10.0–11.4

## O=S(=O)(O)CC(O)CNC1CCCCC1 (centres unmarked) [CAPSO]
[1]; Table 2
  Effective pH Range: 8.9–10.3

## O=S(=O)(O)CCCNC1CCCCC1 [CAPS]
[1]; Table 2
  Effective pH Range: 9.7–11.1

## O=S(=O)(O)CCNC1CCCCC1 [CHES]
[1]; Table 2
  Effective pH Range: 8.6–10.0

## O=S(=O)(O)CC(O)CN(CCO)CCO (centres unmarked) [DIPSO]
[1]; Table 2
  Effective pH Range: 7.0–8.2

## O=S(=O)(O)CCCCN1CCN(CCO)CC1 [HEPBS]
[1]; Table 2
  Effective pH Range: 7.6–9.0

## O=P(O)(O)O [KPhosphate, potassium phosphate]
[2]; 298 K to 90 K, 50 mM buffer, pH 7.0
  ΔpH over a 208 K range: −0.50
[2]
  direction of pH change as the solution is equilibrated at lower temperatures: decreases
[2]; Table 3, pH 7.0 at 298 K
  pH at plateau: 6.5
[2]; Table 3, pH 8.0 at 298 K
  pH at plateau: 7.3
[2]; Table 3
  pH at 298 K: 8.0 and 7.0
[2]; pH 7
  ΔpH: −0.5
[2]; pH 8
  ΔpH: −0.7
[2]; starting from pH 8.0, indicator 1
  pH change: ~−0.7 units

## O=S(=O)(O)CCN1CCOCC1 [MES, 2-morpholinoethanesulfonic acid]
[2]; Table 3, change in pH with decreasing temperature, pH 6.0 at 298 K
  ΔpH: +1.4
[2]; Table 3, pH 6.0 at 298 K
  pH at plateau: 7.4
[2]; Table 3
  pH at 298 K: 6.0

## O=S(=O)(O)CCCN1CCOCC1 [MOPS, 3-N-morpholino propansulfonic acid]
[2]
  direction of pH change as the solution is equilibrated at lower temperatures: increases
[2]; [7]
  ΔpH: +1.6
[2]; Table 3, pH 6.1 at 298 K
  pH at plateau: 7.7
[2]; Table 3
  pH at 298 K: 6.1
[2]; room temperature to ~170 K, 50 mM, 75% glycerol
  increase of pH upon lowering the temperature: about 1.6 pH unit
[2]; sample containing 50% glycerol, FIG. 6
  degree of pH change with temperature, 50% glycerol versus 75% glycerol: somewhat larger
[1]; Table 2
  Effective pH Range: 6.5–7.9

## CC(=O)[O-].[Na+] [Na-Acetate, sodium acetate]
[2]; Table 3, pH 5.0 at 298 K
  pH at plateau: 5.4
[2]; Table 3
  pH at 298 K: 5.0
[2]; pH 5
  ΔpH: +0.4

## O=S(=O)(O)CCN1CCN(CCS(=O)(=O)O)CC1 [PIPES]
[1]; Table 2
  Effective pH Range: 6.1–7.5

## O=S(=O)(O)CC(O)CN1CCN(CC(O)CS(=O)(=O)O)CC1 (centres unmarked) [POPSO]
[1]; Table 2
  Effective pH Range: 7.2–8.5

## O=S(=O)(O)CCCCNC(CO)(CO)CO [TABS]
[1]; Table 2
  Effective pH Range: 8.2–9.6

## O=S(=O)(O)CC(O)CNC(CO)(CO)CO (centres unmarked) [TAPSO]
[1]; Table 2
  Effective pH Range: 7.0–8.2

## O=S(=O)(O)CCCNC(CO)(CO)CO [TAPS]
[1]; Table 2
  Effective pH Range: 7.7–9.1

## O=C(O)C(O)C(O)C(=O)O (centres unmarked) [Tartrate]
[1]
  pKa values for the single buffers, second value: (3.00, 4.40)^1

## NC(CO)(CO)CO [Trizma, 2-Amino-2-(hydroxymethyl)-1,3-propanediol]
[2]
  direction of pH change as the solution is equilibrated at lower temperatures: increases
[2]; Table 3, change in pH with decreasing temperature, pH 7.0 at 298 K
  ΔpH: +2.2
[2]; Table 3, pH 7.0 at 298 K
  pH at plateau: 9.2
[2]; Table 3
  pH at 298 K: 7.0
[1]; Table 2
  Effective pH Range: 7.5–9.0

## CC(=O)O [acetate]
[2]
  direction of pH change as the solution is equilibrated at lower temperatures: increases

## N [ammonium hydroxide]
[1]; Table 2
  Effective pH Range: 8.8–9.9

## O=C(O)O [carbonate]
[1]; Table 2
  Effective pH Range (pK1): 6.0–8.0
  Effective pH Range (pK2): 9.5–11.1

## O=C(O)CC(O)(CC(=O)O)C(=O)O [citrate]
[1]; Table 2
  Effective pH Range (pK1): 2.2–6.5
  Effective pH Range (pK2): 3.0–6.2
  Effective pH Range (pK3): 5.5–7.2

## COc1cccc2c1C(=O)c1c(O)c3c(c(O)c1C2=O)C[C@@](O)(C(=O)CO)C[C@@H]3O[C@H]1C[C@H](N)[C@H](O)[C@H](C)O1 [doxorubicin]
[4]; freeze (−20° C.)-thaw (+37° C.), correlates with hydrolysis of the aminoglycoside bond
  therapeutic activity upon repeated freeze-thaw treatments: gradually reduces therapeutic activity
[4]; storage at 4-8° C.
  optimum pH for storage stable, ready-to-use formulations: 3.0

## NCC(=O)O [glycine]
[1]; Table 2
  Effective pH Range (pK1): 2.2–3.6
  Effective pH Range (pK2): 8.8–10.6

## NCC(=O)NCC(=O)O [glycylglycine] (H-Gly-Gly-OH)
[1]; Table 2
  Effective pH Range (pK1): 2.5–3.8
  Effective pH Range (pK2): 7.5–8.9
[1]; Table 2, pK1 or first value printed in the cell
  pKa at 25° C., pK1: 3.14

## c1c[nH]cn1 [imidazole]
[1]; Table 2
  Effective pH Range: 6.2–7.8

## O=C(O)CC(O)C(=O)O (centres unmarked) [malate]
[1]; Table 2
  Effective pH Range (pK1): 2.7–4.2
  Effective pH Range (pK2): 4.0–6.0

## Cc1onc(-c2ccccc2)c1C(=O)N[C@@H]1C(=O)N2[C@@H]1SC(C)(C)[C@@H]2C(=O)O [oxacillin]
[5]; 200 μM in 50 mM BisTris Propane buffer pH 7.0, 193 K, freeze-thaw over eight days
  hydrolysis of the antibiotic on storage, versus HEPES:KPhosphate (60:40) buffered solution: greater hydrolysis
[5]; 200 μM in 50 mM HEPES:KPhosphate (60:40) pH 7.0, 193 K, eight days
  pH-induced hydrolysis under freeze-thaw storage conditions: reduced

## C1CNCCN1 [piperazine]
[1]; Table 2
  Effective pH Range (pK1): 5.0–6.0
  Effective pH Range (pK2): 9.5–9.8

## O=P(O)(O)OP(=O)(O)O [pyrophosphate]
[1]; Table 2
  Effective pH Range: 7.0–9.0

## O=C(O)CNC(CO)(CO)CO [tricine]
[1]; Table 2
  Effective pH Range: 7.4–8.8

## phosphate
[1]; Table 2
  Effective pH Range (pK1): 1.7–2.9
  Effective pH Range (pK2): 5.8–8.0
  Effective pH Range (pK3): 11.5–13.0

## thrombin-activated porcine factor VIII: thrombin-activated porcine factor VIII, heterotrimeric coagulation protein
[6]; between pH 7 and 8
  coagulation activity between pH 7 and 8: sharp decline
[6]; pH 6.0 at 4° C. or 20° C.
  state of the protein at pH 6.0: stable, active, heterotrimer
